Test results as given in article PMC7409197, “Adenosine Receptors as Neuroinflammation Modulators: Role of A1 Agonists and A2A Antagonists” (Cells, 2020).

What was measured:
mixed glial cells [1] = assay: CellTiter 96 AQueous One (MTS) cell viability, ligands alone, mixed glial cells; type: cell-based, rat; details: for toxicity in vitro (cell viability): compared with CCPA and ZM241385; for cell viability vs. control: ligand alone
Method: (§1) Newborn male Wistar rats were sacrificed and mixed glial cell cultures were obtained from the cerebral cortices. Cerebral cortices were dissected, and meninges were cleared away. Tissues were treated with trypsin solution (trypsin 0.05% (w/v) trypsin-EDTA 5 mM) for 25 min at 37 °C. The tissue was fully disaggregated by pipetting and the dissociated cells were seeded in a 6-well plate with Dulbecco’s modified Eagle’s/High glucose medium enriched with 100 U/mL penicillin, 100 µg/mL streptomycin and 10% FBS. Fresh medium was changed the next day and then every 3 days decreasing the quantity of FBS. All experiments were carried out after 7–9 days of plating.
(§2) Mixed glial cell cultures were divided into 2 groups, one to study A1AR partial agonists and another for A2AAR antagonists. Cells from the first group were pre-treated with 2 µL at three different concentrations of C1 for 15, 30 or 60 min and then with further addition of a pro-inflammatory cocktail of cytokines (TNF-α, 20 ng/mL; IL-1β, 20 ng/mL; IFN-γ 20 ng/mL) for 48 h. […] To study C2 cells were pre-treated with the same CK cocktail for 48 h and then with 2 µL of C2 at three different concentrations for 15, 30, or 60 min (Scheme 1). ZM241385, a well known A2AAR antagonist, was used as reference compound. Furthermore, ligands and CK were tested alone for 15, 30 or 60 min and 48 h respectively.
(§3) 1.7 × 10^4 mixed glial cells were cultured in 98 μL of the specific medium in a 96 well plate overnight. The next day 2 μL of ligand or CK cocktail were added to the well. After all treatments, 20 µL of CellTiter 96® AQueous One Solution Reagent was added in a final volume of 100 µL. Absorbance was read at 490 nm using the plate reader GENiosPro. Cell viability was calculated as percentage using the following formula: Cell viability =OD mean of treated cells/OD mean of control cells × 100

Sprague Dawley rats = assay: Y Maze short-term memory in LPS neuroinflammation rat model; type: in vivo; details: for short-term memory impairment by LPS (novel arm preference, Y Maze) / short-term memory performance, compound alone (Y Maze): rats; for short-term memory performance, compound alone (Y Maze): saline instead of LPS
Method: Animal procedures were performed in accordance with the European Community guidelines (Directive 2010/63/EU), Portuguese law on animal care (DL 113/2013), and approved by the Instituto de Medicina Molecular Internal Committee and the Portuguese Animal Ethics Committee (Direcção Geral de Veterinária). Environmental conditions were kept constant: food and water ad libitum, 21 ± 0.5 °C, 60% ± 10% relative humidity, 12 h light/dark cycles, 3–5 rats per double-decker ventilated cage. Male Sprague Dawley rats 8 weeks old were divided into the following groups (Table 1):
C1 was dissolved in 5% DMSO + 95% H2O to a final concentration of 7 mg/mL and C2 was dissolved in DMSO to a final concentration of 5 mg/mL. Accordingly, vehicle for G1 was 5% DMSO + 95% H2O and for G2 was DMSO.
Animals were anesthetized with a cocktail of 75 mg/kg ketamine + 1 mg/kg dexmedetomidine. Once rats were deeply anesthetized, the head was fixed into a stereotaxic frame and an incision made on the scalp to expose the skull. Coordinates for injection were AP -1.0, ML ± 1.5, DV -3.7 mm. For G1, LPS was delivered bilaterally 5 µL of a 1 µg/µL LPS solution per hemisphere, and C1 was delivered also i.c.v. 15 min before the LPS injection, 5 µL of a 7 µg/µL solution. Flow rate was kept at 1 µL/min, using an automatic injector coupled to a 10 µL hamilton syringe gauge 30. After each injection, 5 min were allowed for diffusion of the drugs before slowly removing the needle. After the procedure, rats were sutured, administered atipamezole (1 mg/kg) to reverse anesthesia, and brought back to a heated cage until fully recovered. For G2, rats were injected i.p. with a 2.5 mg/kg solution of C2, 30 min after the i.c.v. injection of LPS 5 µg/5 µL per hemisphere, in total of 10 µg. Rats were monitored for sickness behavior (body temperature, general activity) and given access to gel food in the first 48 h.
Y Maze is a behavior test useful to measure short-term spatial working memory. Animals are introduced in the maze always in the same starting position, at the end of the start arm. An initial habituation phase of 8 min, animals freely explore 2 of the arms, the 3rd being closed. Sixty minutes after the habituation period animals are placed again in the maze for 5 min this time with all 3 arms available to exploration. Using the Smart video tracing software, each animal’s route was registered. The time spent in the arm initially closed, which for the animal is the novel, unexplored environment, is calculated in relation to the time spent in the already familiar arms.

mixed glial cells [2] = assay: MTS cell viability in cytokine cocktail (CK) inflammatory model, mixed glial cells; type: cell-based, rat
Method: as §1, §2, §3

neuronal cells = assay: Cell viability in primary neuronal cells with or without CK and AR antagonists; type: cell-based, rat; details: for protection of neurons against neuroinflammatory insult (cell viability): 30 min, with CK
Method: Neurons were obtained from hippocampus or cortex of embryos. Briefly, pregnant rat was scarified and the uterus removed. Embryos were taken out from the uterus and brains were obtained. After removing the meninges, hippocampus and cortex were dissected and homogenated with tweezers. The result was incubated with trypsin for 15 min at 37 °C and then centrifuged 2 min at 1000 rpm. The pellet was resuspended with 15 mL of HBSS/0.37% Glucose/30% FBS and centrifuged as before for three times. Finally, the pellet was resuspended with 15 mL of neurobasal media supplemented with 25 µM of glutamine. The result was filtered and plated. Cells were plated in 24 well plates at 10^5 cells/well [26].
as §3

mixed glial cells [3] = assay: Hoechst assay, cell area and circularity in mixed glial cells; type: cell-based, rat; details: compound 1 pre-treatment, compound 2 post-treatment, with CK cocktail
Method: This assay was carried out using Hoechst 33258. 6 × 10^5 mixed glial cells were seeded in a six well plate. After 24 h the media was eliminated, and cell cultures washed with PBS. Then, they were washed with acetic acid/methanol solution 50:50, again washed with PBS and incubated 10 min with a fixative solution. After this, cells were cleaned with distilled water and incubated light protected for 30 min at rt with Hoechst (1 µg/mL). Finally, the dye was discarded, and cells washed with water. Glycerol solution was added and cells were observed under an Olympus microscope. The cell area and circularity were measured using ImageJ as image analyzing software. Area and circularity were calculated as percentage using the following formula:(1) Area or circularity =area or circularity of treated cells/area or curcularity of control cells × 100

Structure (SMILES) | toxicity in vitro (cell viability) (mixed glial cells [1]) | cell viability vs. control (mixed glial cells [1]; 5.5 µM, 30 min) | cell viability vs. control (mixed glial cells [1]; 30 µM, 15 min) | short-term memory impairment by LPS (novel arm preference, Y Maze) (Sprague Dawley rats; i.c.v. 5 µL of 7 µg/µL 15 min before i.c.v. LPS) | short-term memory performance, compound alone (Y Maze) (Sprague Dawley rats; i.c.v.) | cell viability vs. control (mixed glial cells [2]; pre-treatment 5.5 µM for 30 min, then CK cocktail 48 h) | prevention of CK aggression (cell viability, words) (mixed glial cells [2]; pre-treatment before CK cocktail 48 h, C1 2-30 µM, CCPA 10 nM 30 min) | protection of neurons against neuroinflammatory insult (cell viability) (neuronal cells; C1 5.5 µM, C2 10 nM) | cell viability, effect against A1AR antagonist DPCPX (neuronal cells; neurons, C1 5.5 µM, DPCPX 100 nM, in presence of CK) | cell area and circularity (Hoechst), effect against CK aggression (mixed glial cells [3]) | cell viability vs. control (mixed glial cells [1]; 10 nM, 15 min) | cell viability vs. control (mixed glial cells [1]; 10 nM, 30 min) | cell viability vs. control (mixed glial cells [1]; 10 nM, 60 min) | cell viability vs. control (mixed glial cells [1]; 60 nM, tendency to toxicity) | blood brain barrier (BBB) crossing (Sprague Dawley rats; inferred from rescue of CNS insult after i.p. injection in rats) | short-term memory impairment by LPS (novel arm preference, Y Maze) (Sprague Dawley rats; 2.5 mg/kg i.p. 30 min after i.c.v. LPS) | short-term memory performance, compound alone (Y Maze) (Sprague Dawley rats; 2.5 mg/kg i.p.) | cell viability vs. control (mixed glial cells [2]; CK cocktail 20 ng/mL 48 h, then ligand 5 nM for 15 min) | cell viability vs. control (mixed glial cells [2]; CK cocktail 20 ng/mL 48 h, then ligand 10 nM for 30 min) | cell viability, combination with A2AAR antagonist SCH58261 (neuronal cells; neurons, C2 10 nM, SCH58261 50 nM)
OC[C@H]1O[C@@H](n2cnc3c(NC4CCCC4)nc(Cl)nc32)C[C@@H]1O [Compound C1, 2-chloro-N^6-cyclopentyl-2′-deoxyadenosine] | no toxic effect | 116 ± 1.7% | 117 ± 1.3% | rescued | reduction in the short-term memory performance | 113 ± 3.1% | able to prevent the CK aggression | beneficial effects in protecting neurons | partially counteract the effect of DPCPX | protective effect | – | – | – | – | – | – | – | – | – | –
CCn1c(Cl)nc2c(N)nc(OCCc3ccccc3)nc21 [Compound C2, 8-chloro-9-ethyl-2-phenethoxyadenine] | no toxic effect | – | – | – | – | – | – | beneficial effects in protecting neurons | – | protective effect | 110 ± 2.7% | 127 ± 3.1% | 125 ± 4.3% | ~80% | readily crosses the BBB | rescued | devoid of any effects in memory performance | 138 ± 1.7% | 233 ± 3.4% | did not exhibited a synergic effect
